The nature of data set [1]: Visual inspection of samples for turbidity and viscosity. In kind it is physicochemical. As to conditions: all samples 0.1-10 mM acetate salt in 100% H2O, no buffer, no pH adjustment; NMR tube in light box compared with pure water; room temperature. The procedure: (§1) ^1H NMR experiments were performed at peptide concentrations of 0.1, 0.5, 1, 2, 5, and 10 mM in 100% H2O. Peptide solutions were prepared in glass vials without pH adjustments, as the addition of concentrated acid or base results in local pH variations that might induce aggregation. Diffusion NMR experiments were performed at peptide concentrations of 3 and 10 mM in 100% D2O. Thus, the diffusion NMR results may not be perfectly representative of the situation in the samples in H2O, but general conclusions can still be drawn.
(§2) The samples were gently agitated, by manual swirling, until the solution appeared visually homogeneous and 450 μL of each sample was transferred to disposable 5 mm NMR tubes (Type 5TA 178 mm from Teknolab Sorbent, Sweden). Aliquots were pipetted slowly to reduce the risk of possible shear-induced aggregation. The time between sample preparation and the start of the NMR measurement was around 15 min. On selected samples, the approximate pH was assessed with pH indicator strips (Scharlau, pH 2.0–9.0, TP0209000S) after aliquots for the NMR samples were taken out.
The NMR tubes containing samples were visually inspected in a light box and compared to an NMR tube containing pure water to simplify identification of visually detectable aggregates.

Data set [2] in a line: 1H NMR in neat H2O, aggregation with concentration and time. In kind it is physicochemical. The procedure: as §1, §2
NMR experiments were performed at 25 °C on either a Varian Unity Inova 500 MHz spectrometer equipped with a Z-spec DBG500-5EF 5 mm dual broadband gradient probe or a Bruker AVANCE III HD 500 MHz spectrometer equipped with a BBO probe, Bruker SMART probe. Spectra were recorded with an excitation sculpting sequence for solvent suppression.[40] […] On the Varian, 300 scans were used on samples of 0.1–1 mM and 64 on 1–10 mM (1 mM was measured using both settings to bridge the concentration series and ensure comparability), which gave adequate signal for unaggregated samples. […]
The absolute integral values (IntC), at each investigated concentration, for signals arising from the methyl groups of leucine (6H; for D-Phe^6-GnRH, cetrorelix, and degarelix) or nor-leucine (3H; for ozarelix) were determined. […] Additionally, IntC of the signal from the acetate counterion (a singlet) were determined for all peptides. […]

Data set [3] in a line: Approximate sample pH by pH indicator strips. In kind it is physicochemical. Conditions: all concentrations and time points investigated, H2O.
On the set-up of data set [4]: method as in PMID 33586081. As to conditions: seen as reduction in total detectable signal and decrease in fraction of sharp signals; cited from earlier work.

Molecules are shown by their SMILES. Square brackets hold non-standard residues; d marks the D form. Peptide text beside a SMILES is read from it. * marks the point of attachment. dPhe(4-NHCONH2) = NC(=O)Nc1ccc(C[C@@H](N)C(=O)O)cc1; Dihydroorotyl(S) = O=C1C[C@@H](C(=O)*)NC(=O)N1; dPhe(4-Cl) = N[C@H](Cc1ccc(Cl)cc1)C(=O)O; Phe(4-NH2) = Nc1ccc(C[C@H](N)C(=O)O)cc1; d2Nal = N[C@H](Cc1ccc2ccccc2c1)C(=O)O; Lys(iPr) = CC(C)NCCCC[C@H](N)C(=O)O; d3Pal = N[C@H](Cc1cccnc1)C(=O)O Some results are limits rather than exact numbers.

Take `CC(=O)N[C@H](Cc1ccc2ccccc2c1)C(=O)N[C@H](Cc1ccc(Cl)cc1)C(=O)N[C@H](Cc1cccnc1)C(=O)N[C@@H](CO)C(=O)N[C@@H](Cc1ccc(NC(=O)[C@@H]2CC(=O)NC(=O)N2)cc1)C(=O)N[C@H](Cc1ccc(NC(N)=O)cc1)C(=O)N[C@@H](CC(C)C)C(=O)N[C@@H](CCCCNC(C)C)C(=O)N1CCC[C@H]1C(=O)N[C@H](C)C(N)=O` [degarelix] (Ac-[d2Nal][dPhe(4-Cl)][d3Pal]S[Phe(4-NH2)](Dihydroorotyl(S))[dPhe(4-NHCONH2)]L[Lys(iPr)]P[dA]-NH2): the “Visual appearance of samples over the investigated time span” value in data set [1] is listed as “visually clear”. Besides, in data set [2] (1H NMR, 25 °C, 100% H2O), the “Concentration at which a distinct group of broad peaks at 1.2-1.6 ppm (intermediately sized aggregates) appears” value is not below 1000 µM. Also, the “Change of 1H NMR spectra over time, 5 and 10 mM samples” value in data set [2] (5 and 10 mM in 100% H2O, over investigated timespan (ozarelix: rapid 4 scan experiments about 15 and 25 min after preparation, 24 h)) is given as “increased notably in intensity”. Further, the “Fate of acetate counterions in the peptide aggregates formed (1H NMR acetate signal)” value in data set [2] (acetate salts, 0.1-10 mM in 100% H2O, 25 °C) is recorded as “exclusion”. Further, in data set [3], the “Sample pH” value is reported as ~ 5.5. In addition, in data set [4], the “Effect of buffer or background salt on aggregation (1H NMR)” value is recorded as “strongly enhance aggregation”.

The record behind these values is publication PMC8905580, “Aggregation Behavior of Structurally Similar Therapeutic Peptides Investigated by ^1H NMR and All-Atom Molecular Dynamics Simulations” (Molecular Pharmaceutics, 2022).
